# From ChEMBL document CHEMBL1142617, “Mycalamides C and D, cytotoxic compounds from the marine sponge Stylinos n. species” (J Nat Prod, 2000)
# Test system: P388
# Assay: Cytotoxicity against mouse P388 cells
# Type: functional, cell-based
row,SMILES,IC50
1,C=C1C[C@](OC)([C@H](O)C(=O)N[C@H]2OCO[C@H]3[C@@H]2O[C@H](C[C@H](O)CO)C(C)(C)[C@@H]3OC)O[C@H](C)[C@@H]1C [MYCALAMIDE A],0.0011 µg/mL
2,C=C1C[C@](OC)([C@H](O)C(=O)NC[C@H]2O[C@H](CO)C(C)(C)[C@H](O)[C@H]2O)O[C@H](C)[C@@H]1C [MYCALAMIDE C],0.095 µg/mL
3,C=C1C[C@](OC)([C@H](O)C(=O)N[C@H]2OCO[C@H]3[C@@H]2O[C@H](C[C@H](O)CO)C(C)(C)[C@@H]3O)O[C@H](C)[C@@H]1C [MYCALAMIDE D],0.035 µg/mL
4,C=C1C[C@](OC)([C@H](O)C(=O)N[C@@H]2OCO[C@H]3[C@@H]2O[C@H](CO)C(C)(C)[C@@H]3OC)O[C@H](C)[C@@H]1C [THEOPEDERIN E],0.0009 µg/mL
